Results on six molecules are retold here after patent US20200340007A1, “CLALS PROTEIN, ITS CODING GENE AND USE IN PREDICTING THE HERBICIDE RESISTANCE OF WATERMELON” (BEIJING ACADEMY OF AGRICULTURE AND FORESTRY SCIENCES, priority 2018, published 2020).

Experiment [1] deals with P190S homozygous mutant strain seedlings. Briefly: Identification of herbicide resistance spectrum. The format is in vivo, watermelon. The note with it: leaf spray, tribenuron 15, halosulfuron 33.75, bensulfuron 22.5, pyrazosulfuron 24, flumetsulam 48, flucarbazone 31.5 g ai/ha, 7 days. From the text:
(§1) Watermelon seeds to be tested are seeds of non-transgenic watermelon, seeds of P190L homozygous mutant strain, seeds of P190S homozygous mutant strain, seeds of P190L heterozygous mutant strain, or seeds of P190S heterozygous mutant strain.
(§2) The experiment was repeated three times, and the steps for each are as follows:
(§3) 1. Planting 5 watermelon seeds to be tested in the field and culturing routinely for 10 days until the cotyledons are flattened to obtain the watermelon seedlings to be tested.
(§4) 2. After step 1 is completed, taking the watermelon seedlings to be tested and spraying the leaves with tribenuron, halosulfuron, bensulfuron, pyrazosulfuron, flumetsulam, and flucarbazone, respectively (spraying dose of tribenuron, halosulfuron, bensulfuron, pyrazosulfuron, flumetsulam, and flucarbazone were 15, 33.75, 22.5, 24, 48, and 31.5 g ai/ha; g represents gram, ai represents the active ingredient, ha represents hectare), and then culturing for 7 days to observe the growth status of the watermelon seedling to be tested.
(§5) 3. After step 1 is completed, taking the watermelon seedlings to be tested, spraying the leaves with the same volume of water as the herbicide in step 2, and then culturing for 7 days, to observe the growth status of the watermelon seedlings as a control.

In experiment [2] the test system is P190L heterozygous mutant strain seedlings. Briefly: Identification of herbicide resistance spectrum. The format is in vivo, watermelon. The conditions noted are these: leaf spray, tribenuron 15, halosulfuron 33.75, bensulfuron 22.5, pyrazosulfuron 24, flumetsulam 48, flucarbazone 31.5 g ai/ha, 7 days.
From the text: as §1, §2, §3, §4, §5

For experiment [3], the system named is P190L homozygous mutant strain seedlings. Description: Identification of herbicide resistance spectrum. The conditions noted are these: leaf spray, tribenuron 15, halosulfuron 33.75, bensulfuron 22.5, pyrazosulfuron 24, flumetsulam 48, flucarbazone 31.5 g ai/ha, 7 days. The format is in vivo, watermelon.
From the text: as §1, §2, §3, §4, §5

In experiment [4] the test system is P190S heterozygous mutant strain seedlings. Briefly: Identification of herbicide resistance spectrum. The format is in vivo, watermelon. The conditions noted are these: leaf spray, tribenuron 15, halosulfuron 33.75, bensulfuron 22.5, pyrazosulfuron 24, flumetsulam 48, flucarbazone 31.5 g ai/ha, 7 days.
From the text: as §1, §2, §3, §4, §5

Experiment [5] relates to non-transgenic watermelon seedlings. Briefly: Identification of resistance to the herbicide tribenuron, seedlings sprayed in the field. The format is in vivo. The conditions noted are these: leaf spray 17 g ai/ha. An excerpt:
(§6) The watermelon seeds to be tested are seeds of non-transgenic watermelon, seeds of P190L homozygous mutant strains, seeds of P190S homozygous mutant strains, seeds of P190L heterozygote mutant strains, or seeds of P190S heterozygote mutant strains.
(§7) The experiment was repeated three times, and the steps for each were as follows:
(§8) 1. Planting 20 watermelon seeds to be tested in the field and culturing routinely to obtain watermelon seedlings to be tested in a two-leaf one-heart period.
(§9) 2. After step 1 is completed, taking the watermelon seedlings to be tested, spraying the leaves with tribenuron (the spraying dose is 17 g ai/ha; g represents gram, ai represents the active ingredient, and ha represents hectare), and then culturing routinely for 7 days to observe the growth status of the watermelon seedlings to be tested.

Experiment [6] has as its system P190S homozygous mutant strain seedlings. The description is as above. The format is in vivo, watermelon. The conditions noted are these: leaf spray 17 g ai/ha.
From the text: as §6, §7, §8, §9

Experiment [7] has as its system P190L heterozygous mutant strain seedlings. The experiment is described as above. The format is in vivo, watermelon. The note with it: leaf spray 17 g ai/ha, observed 7 days.
From the text: as §6, §7, §8, §9

Experiment [8] deals with P190L homozygous mutant strain seedlings. The experiment is described as above. The format is in vivo, watermelon. The conditions noted are these: leaf spray 17 g ai/ha.
From the text: as §6, §7, §8, §9

Experiment [9] has as its system P190S heterozygous mutant strain seedlings. Described as above. The format is in vivo, watermelon. The conditions noted are these: leaf spray 17 g ai/ha, observed 7 days.
From the text: as §6, §7, §8, §9

Consider `COc1cc(OC)nc(NC(=O)NS(=O)(=O)c2c(C(=O)O)c(Cl)nn2C)n1` [halosulfuron], for which the “resistance of seedlings to the herbicide compared with non-transgenic watermelon” value in [1], in experiment [2], in experiment [3] and in experiment [4] was “obvious resistance” each time.
As to `COc1nc(C)nc(N(C)C(=O)NS(=O)(=O)c2ccccc2C(=O)O)n1` [tribenuron], the “time to death of seedlings after spraying” value in experiment [5] was 3 to 7 days. The “growth status of the watermelon seedlings after spraying” value is on record as “died quickly” in experiment [5] (two-leaf one-heart period, observed 7 days); “grew normally” in experiment [6] (observed 7 days); “grew normally” in experiment [7]; “grew normally” in [8] (observed 7 days); “grew normally” in experiment [9]. Moreover, the “growth after spraying compared with seedlings of the heterozygous mutant strains” value in experiment [6] (7 days) and in experiment [8] (7 days) was “grew better” throughout. For the same molecule, the “resistance of seedlings to the herbicide compared with non-transgenic watermelon” value in experiment [1], in experiment [2], in experiment [3] and in [4] was “obvious resistance” each time.
With `Cc1ccn2nc(S(=O)(=O)Nc3c(F)cccc3F)nc2n1` [flumetsulam], the “resistance of seedlings to the herbicide compared with non-transgenic watermelon” value in [1], in experiment [2], in experiment [3] and in experiment [4] was “obvious resistance” each time.
Turning to `COc1cc(OC)nc(NC(=O)NS(=O)(=O)Cc2ccccc2C(=O)O)n1` [bensulfuron], the “resistance of seedlings to the herbicide compared with non-transgenic watermelon” value in experiment [1], in experiment [2], in experiment [3] and in experiment [4] was “obvious resistance” each time.
With `COc1nn(C(=O)NS(=O)(=O)c2ccccc2OC(F)(F)F)c(=O)n1C` [flucarbazone], the “resistance of seedlings to the herbicide compared with non-transgenic watermelon” value in experiment [1], in experiment [2], in experiment [3] and in experiment [4] was “obvious resistance” throughout.
For `COc1cc(OC)nc(NC(=O)NS(=O)(=O)c2c(C(=O)O)cnn2C)n1` [pyrazosulfuron], the “resistance of seedlings to the herbicide compared with non-transgenic watermelon” value in experiment [1], in experiment [2], in [3] and in experiment [4] was “obvious resistance” in each case.
